Several values for one entry are separate records, joined by “and”; a condition that tells them apart may be missing. Equal entries are not always repeated. Structures can show the parent of a compound that is named as a salt. Where two headings read alike, the source gives them in different places.
Experiments:
[1] = target: nicotinic acetylcholine receptors (nAChRs), [^3H]-epibatidine binding sites in rat cerebral cortex
[2] = target: nicotinic acetylcholine receptors (nAChRs), [^3H]-epibatidine binding sites in rat cerebral cortex; test: Homogenate binding assay with [^3H]-epibatidine, rat cerebral cortex homogenates
[3] = tested on: nicotinic acetylcholine receptors (nAChRs), [^3H]-epibatidine binding sites in rat cerebellum
[4] = target: nicotinic acetylcholine receptors (nAChRs), [^3H]-epibatidine binding sites in rat cerebellum; remark: listed apart in the source
[5] = tested on: nAChRs ([^3H]-epibatidine binding sites) in rat cortex and cerebellum; details: in vivo

SMILES: O=c1cccc2n1C[C@@H]1CNC[C@H]2C1 [Cytisine, cytisine]
- pKihigh [1]: 8.7 ± 0.1
- pKilow [1]: 6.7 ± 0.1
- pKihigh [2]: 9.4 ± 0.0
- pKilow [2]: 7.2 ± 0.2

SMILES: CO[C@H]1CC=C2CCN3CCC4=C(CC(=O)OC4)[C@]23C1 [Dihydro-β-erythroidine, dihydro-β-erythroidine]
- pKihigh [1]: 7.1 ± 0.1
- pKilow [1]: 5.7 ± 0.2
- pKihigh [2]: 7.7 ± 0.2
- pKilow [2]: 6.3 ± 0.1

SMILES: C[N+](C)(C)CCCCCC[N+](C)(C)C [Hexamethonium, hexamethonium chloride]
- Competition in the [^3H]-epibatidine binding assay [1]: competitive
- pKi (single site; cell spans pKihigh and pKilow columns) [1]: 3.4 ± 0.1
- Competition in the [^3H]-epibatidine binding assay [2]: competitive
- pKi (single site; one-site fit) [2]: 4.0 ± 0.1

SMILES: CNC1(C)C2CCC(C2)C1(C)C (stereo not drawn) [Mecamylamine, mecamylamine hydrochloride]
- Competition in the [^3H]-epibatidine binding assay [1]: failed to compete
- pKi (single site; cell spans pKihigh and pKilow columns) ([1]; cortex segments, 400 pM [^3H]-epibatidine, 28 h, 4°C): NI (NI, no inhibition)
- Competition in the [^3H]-epibatidine binding assay [2]: failed to compete
- pKi (single site; one-site fit) ([2]; cortex homogenates, 200 pM [^3H]-epibatidine, 5 h, 4°C): NI (NI, no inhibition)

SMILES: CN1CCC[C@H]1c1cccnc1 [Nicotine, nicotine]
- pKihigh [1]: 7.8 ± 0.2 and 7.9 ± 0.1
- pKilow [1]: 6.3 ± 0.2 and 6.5 ± 0.1
- pKi [2]: 8.1 ± 0.1
- pKi (single site; one-site fit) [2]: 8.4 ± 0.1
- pKi (single site; cell spans pKihigh and pKilow columns) [3]: 7.1 ± 0.2
- pKihigh [4]: 8.2 ± 0.1
- pKilow [4]: 6.3 ± 0.1
- Upregulation of nAChRs [5]: no upregulation
